Publication PMC6238273, “First in vivo evaluation of a potential SPECT brain radiotracer for the gonadotropin releasing hormone receptor” (BMC Research Notes, 2018)
Entries after “also recorded” stand apart in the source; their conditions may differ. Blank lines part the entries; values can stand above or below the molecule they belong to.

Legend:
hGnRHR = target: T1, hGnRHR (Homo sapiens, UniProt P30968); test: Competitive binding for LHRH/GnRH by fluorescence based FLIPR-assay in HEK293T cells stably expressing GnRH receptors; type: cell-based; conditions: for Ki: 5 nM LHRH agonist, Ki by cheng-prusoff equation; for IC50: competition with 5 nM LHRH agonist, read-out: hGnRHR pIC50 (converted)
T1 construct: host or cells: HEK293T
T1 sequence (P30968 1-328): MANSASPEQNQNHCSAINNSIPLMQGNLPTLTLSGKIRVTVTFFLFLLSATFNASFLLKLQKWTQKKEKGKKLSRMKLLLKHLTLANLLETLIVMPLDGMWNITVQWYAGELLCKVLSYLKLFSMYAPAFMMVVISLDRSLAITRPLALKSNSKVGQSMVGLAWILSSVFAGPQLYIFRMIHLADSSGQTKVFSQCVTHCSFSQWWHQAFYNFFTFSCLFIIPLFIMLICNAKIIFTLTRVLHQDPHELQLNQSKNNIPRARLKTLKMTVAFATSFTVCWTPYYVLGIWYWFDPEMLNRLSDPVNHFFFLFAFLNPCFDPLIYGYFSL
Method: HEK293T (division arrested cell-line, Multispan Inc. USA) cells stably expressing GnRH receptors were used to measure the competitive binding for LHRH/GnRH by a fluorescence based FLIPR-assay. Compound-1 was tested in concentrations from 50 µM to 0.5 nM with 5 nM LHRH agonist as competitor.
The Ki was determined by using the cheng-prusoff equation [13].

[1] = Biodistribution in rats (gamma counter, % ID/g); type: in vivo; conditions: rat
Method: Compound-1 SPECT brain imaging and biodistribution were examined post injection in rats. All animal procedures were performed under isoflurane anesthesia (Induction 4%, Maintenance 2% in oxygen). One group of rats was injected intravenous (iv.) with [^123I]-Compound-1 (1.67 MBq ± 0.28, n = 3). A second group was injected intraperitoneal (ip.) (4.12 MBq ± 0.56, n = 3). A third group of animals was injected iv. with Na^123I (1.53 MBq ± 0.37 SD, n = 3). Biodistribution of these compounds was studied after the SPECT imaging sessions 1 h post-injection (in the iv. groups) and 2 and 5 h post-administration in the ip. group. Rats were positioned with the brain in the center of the field of view inside a 4 detector configuration Triumph™ II X-SPECT^Ⓡ small animal PET/SPECT/CT scanner (Trifoil Imaging, Northridge Tri-Modality Imaging, Inc., Chatsworth, CA). Heart rate and breathing was monitored with sensors inside a closed animal cell (Equipment Veterinaire Minerve, Esternay) and the temperature on the heated air flow inside the cell was set to 35 °C to prevent hypothermia. Dynamic SPECT acquisitions for 30 and 60 min with 6–12 image frames (5 min duration) were obtained for the animals which were used for 1–2 h biodistribution studies respectively. The animals subjected to the 5 h biodistribution study were scanned after an average of 4 h and 20 min, a static SPECT of 30 min was acquired. 1.0 mm 5-multipinhole collimator (N5F65A10) and 50 mm radius of rotation (ROR). Images were reconstructed using a 20% energy window and Ordered Subset Expectation Maximization (OSEM) algorithm with 5 iterations and 8 subsets. Computed tomography (CT) was performed using 80 kVp, 2 × 2 binning, 512 projections and 1.3× magnification, immediately after SPECT imaging. The raw data were reconstructed using Filtered Back Projection. Images were analyzed using PMOD (PMOD Technologies Ltd., Zürich). Volumes of interests (VOI) representing the brain-tissue, non-brain-tissue and background regions were delineated based on the anatomical CT images, and transferred to the co-registered dynamic SPECT data. In addition, an average SPECT image over all time frames was calculated for each animal.
Animals were euthanized with an overdose of pentobarbital (ip. […]) and organs were collected, weighed and analysed for radioactivity measurements on an automatic gamma counter (Wizard^2 2480, Perkin Elmer, USA). Organ distribution was expressed as percentage of injected dose per gram for the organs selected (% ID/g).

[2] = In vivo stability: radio-HPLC of blood samples 1 h post injection; conditions: rat blood samples 1 h post injection
Method: (§1) The stability of Compound-1 was initially investigated in saline. Compound-1 was dissolved in ethanol:Polysorbate 80:water (5:5:90) then incubated with 300 µl 0.9% NaCl at ambient temperature to give a final concentration of 6.5 mM (millimolar). Aliquots were taken at 0, 60, 120 and 1560 min, then analysed by LC–MS. Furthermore, Compound-1 was investigated in human and rat serum. Compound-1 in ethanol:Polysorbate 80:water (5:5:90) was incubated with 400 µl human and 300 µl rat serum at 37 °C to give a final concentration of 5 mM and 6.5 mM. Aliquots (40–50 µl) from previous mixtures was extracted with ice-cold acetonitrile at 0, 10, 30, 60, 120, 240 and 1320 min post-incubation. Samples were centrifuged at 13,000g for 5 min. The supernatants were analysed by LC–MS. Serum experiments were performed in triplicate. Additionally, [^123I]-Compound-1 was evaluated for in vivo stability by analyzing blood samples after 1 h post injection. The blood samples were centrifuged and the supernatant was injected on the radio-HPLC.

Rat brain SPECT imaging = type: in vivo
Method: Compound-1 SPECT brain imaging and biodistribution were examined post injection in rats. All animal procedures were performed under isoflurane anesthesia (Induction 4%, Maintenance 2% in oxygen). One group of rats was injected intravenous (iv.) with [^123I]-Compound-1 (1.67 MBq ± 0.28, n = 3). A second group was injected intraperitoneal (ip.) (4.12 MBq ± 0.56, n = 3). A third group of animals was injected iv. with Na^123I (1.53 MBq ± 0.37 SD, n = 3). Biodistribution of these compounds was studied after the SPECT imaging sessions 1 h post-injection (in the iv. groups) and 2 and 5 h post-administration in the ip. group. Rats were positioned with the brain in the center of the field of view inside a 4 detector configuration Triumph™ II X-SPECT^Ⓡ small animal PET/SPECT/CT scanner (Trifoil Imaging, Northridge Tri-Modality Imaging, Inc., Chatsworth, CA). Heart rate and breathing was monitored with sensors inside a closed animal cell (Equipment Veterinaire Minerve, Esternay) and the temperature on the heated air flow inside the cell was set to 35 °C to prevent hypothermia. […] Images were analyzed using PMOD (PMOD Technologies Ltd., Zürich). […] In addition, an average SPECT image over all time frames was calculated for each animal.

[3] = Stability in rat serum by LC-MS; type: in vitro ADME; conditions: for % of compound remaining, rat serum: 37 °C
Method: as §1

[4] = Stability in human serum by LC-MS; type: in vitro ADME; conditions: for % of compound remaining, human serum: 37 °C
Method: as §1

[5] = Stability in saline (0.9% NaCl) by LC-MS; type: physicochemical; conditions: ambient temperature, n = 1
Method: as §1, with “Aliquots were taken at 0, 60, 120 and 1560 min, then analysed by LC–MS.” left out

[6] = 120 min, mean ± SD n = 3, listed as compound 1

- Ki (hGnRHR): 12.2 nM
- IC50 (hGnRHR): 631 nM
SMILES: CC(C)(C)c1ccc(-c2nc3c(N4CCN(Cc5ccc6nccnc6c5)CC4)cccc3[nH]2)cc1 [WAY207024, 6-({4-[2-(4-tert-butylphenyl)-1H-benzimidazol-4-yl]piperazin-1-yl}methyl)quinoxaline, reference compound]

- organ distribution, brain ([1]; 1 h post iv. injection): 0.03 % ID/g
- organ distribution, stomach ([1]; 1 h post iv. injection): 3.6 % ID/g
- organ distribution, testis ([1]; 1 h post iv. injection): 0.2 % ID/g
- organ distribution, thyroid ([1]; 1 h post iv. injection): 1.2 % ID/g
- organ distribution, stomach ([1]; 2 h post ip. administration): 2.5 % ID/g
- organ distribution, thyroid ([1]; 2 h post ip. administration): 5.8 % ID/g
- organ distribution, stomach ([1]; 5 h post ip. administration): 2 % ID/g
- organ distribution, thyroid ([1]; 5 h post ip. administration): 13.1 % ID/g
- detection of intact radiotracer in blood by radio-HPLC [2]: did not detect
- SPECT VOI comparison (brain, non-brain region, background region) (Rat brain SPECT imaging; semi-quantitative SPECT analysis): no significant differences
SMILES: CC(C)(C)c1ccc(-c2nc3c(N4CCN(C(=O)C[123I])CC4)cccc3[nH]2)cc1 [[^123I]-Compound-1]

- % of compound remaining, rat serum ([3]; 0 min, 6.5 mM): 100%
- % of compound remaining, rat serum ([3]; 10 min, mean ± SD n = 3): 86±7.3%
- % of compound remaining, rat serum ([3]; 30 min, mean ± SD n = 3): 82±11.5%
- % of compound remaining, rat serum ([3]; 60 min, mean ± SD n = 3): 44±5.5%
- % of compound remaining, rat serum ([3]; 120 min, mean ± SD n = 3): approximately 30%
- % of compound remaining, rat serum [3, 6]: 30±4.8%
- % of compound remaining, rat serum ([3]; 240 min, mean ± SD n = 3): 8±1.6%
- % of compound remaining, rat serum ([3]; 1320 min): 0%
- decrease of compound in rat serum ([3]; after 1 h, LC-MS): 50%
- % of compound remaining, human serum ([4]; 0 min, 5 mM): 100%
- % of compound remaining, human serum ([4]; 10 min, mean ± SD n = 3): 88±1.6%
- % of compound remaining, human serum ([4]; 30 min, mean ± SD n = 3): 74±8.1%
- % of compound remaining, human serum ([4]; 60 min, mean ± SD n = 3): 52±1.5%
- % of compound remaining, human serum ([4]; 120 min, mean ± SD n = 3): 23%
- % of compound remaining, human serum [4, 6]: 23±1.6%
- % of compound remaining, human serum ([4]; 240 min, mean ± SD n = 3): 3±0.3%
- % of compound remaining, human serum ([4]; 1320 min): 0%
- decrease of compound in human serum ([4]; after 1 h, LC-MS): 50%
- Ki (hGnRHR): 82 nM
- IC50 (hGnRHR): 5130 nM
- % of compound remaining, saline ([5]; 0 min, 6.5 mM): 100%
- % of compound remaining, saline ([5]; 60 min): 46%
- % of compound remaining, saline ([5]; 120 min): 10%
- % of compound remaining, saline ([5]; 1440 min (24 h)): 2%
- % of compound remaining, saline ([5]; 1440 min (24 h), listed as compound 1): 1.6%
SMILES: CC(C)(C)c1ccc(-c2nc3c(N4CCN(C(=O)CI)CC4)cccc3[nH]2)cc1 [Compound-1]
- brain uptake in SPECT images (Rat brain SPECT imaging; iv. or ip. injection): no uptake; also recorded: did not show any uptake
